From patent US10030027B2, “Soluble guanylate cyclase stimulators” (MERCK SHARP & DOHME CORP., priority 2015, dated 2018)

Key:
[1] = target: human recombinant sGC enzyme (Homo sapiens (Human), UniProt Q02108+Q02153); experiment: Size Exclusion Chromatography (SEC) competition binding assay using [3H] Ex-77B as the radioligand; details: [3H] Ex-77B radioligand, 24 hours at 37° C.
Outline: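 Recombinant human sGC binding measured by competition against tritiated Ex-77B radioligand, with non-specific binding defined by 1 μM unlabeled Ex-77B.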

sGC α1/β1 heterodimer = sGC α1/β1 heterodimer (Homo sapiens (Human), UniProt Q02108+Q02153); experiment: Cell-based sGC functional assay (cyclic GMP assay for sGC activator: CASA assay); details: CHO-K1/sGC cells; for Emax: CHO-K1, activity expressed as percentage of compound A (standard), read-out: % Activation; for EC50: inflection point, 4P fit, read-out: IP
Outline: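 CHO-K1 cells stably expressing human sGC α1/β1 were pre-incubated 30 min at 25° C with or without 1 μM DETA-NO, then exposed to compound for 1 hr at 37° C with 0.5 mM IBMX and 2.5% DMSO final. Intracellular cGMP was measured by HTRF, expressed as % of reference sGC-HDA maximum; inflection point and maximum fold induction came from 4-parameter fits.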

SMILES | Ki [1] [nM] | Emax (sGC α1/β1 heterodimer) [%] | EC50 (sGC α1/β1 heterodimer) [nM]
C[C@@]1(c2ccc(CCc3nn[nH]n3)cc2)C(=O)Nc2nc(-c3nn(Cc4ccccc4F)c4ccccc34)nc(N)c21 [Example 242B, (S)-4-amino-2-[1-(2-fluoro-benzyl)-1H-indazol-3-yl]-5-methyl-5-{4-[2-(2H-tetrazol-5-yl)ethyl]phenyl}-5,7-dihydro-6H-pyrrolo[2,3-d] pyrimidin-6-one] | 1.11 | 107 | 3100
CC1(c2ccc(CCP(=O)(O)O)cc2)C(=O)Nc2nc(-c3nn(Cc4ccccc4F)c4cc(Cl)ccc34)nc(N)c21 (centres unmarked) [Example 257A, [2-(4-{4-Amino-2-[6-chloro-1-(2-fluorobenzyl)-1H-indazol-3-yl]-5-methyl-6-oxo-6,7-dihydro-5H-pyrrolo[2,3-d]pyrimidin-5-yl}phenyl)ethyl]phosphonic acid] | 0.105 | 84.7 | 106
CC1(c2ccc(-c3nn[nH]n3)cc2)C(=O)Nc2nc(-c3nn(Cc4ccccc4F)c4cc(F)ccc34)nc(N)c21 (centres unmarked) [Example 250B, 4-amino-2-[6-fluoro-1-(2-fluorobenzyl)-1H-indazol-3-yl]-5-methyl-5-[4-(1H-tetrazol-5-yl)phenyl]-5,7-dihydro-6H-pyrrolo[2,3-d] pyrimidin-6-one] | 0.108 | 102 | 1700
CC1(c2nc(CC(=O)O)co2)C(=O)Nc2nc(-c3nn(Cc4ccccc4F)c4ccccc34)nc(N)c21 (centres unmarked) [Example 203A, (2-{4-amino-2-[1-(2-fluorobenzyl)-1H-indazol-3-yl]-5-methyl-6-oxo-6,7-dihydro-5H-pyrrolo[2,3-d]pyrimidin-5-yl}-1,3-oxazol-4-yl)acetic acid] | 0.071 | 122 | 330
CC(C)(Cc1csc([C@]2(C)C(=O)Nc3nc(-c4nn(CC5CCCC5)c5ncccc45)nc(N)c32)n1)C(=O)O (single isomer, unassigned) [Example 153A] | 0.118 | 119 | 145
CC(C)(Cc1csc([C@]2(C)C(=O)Nc3nc(-c4nn(CC5CCCCO5)c5ncccc45)nc(N)c32)n1)C(=O)O (single isomer, unassigned) [Example 123AA] | 1.23 | 79 | 880
CC(C)(Cc1csc([C@]2(C)C(=O)Nc3nc(-c4nn(CC5CCCCO5)c5cc(F)ccc45)nc(N)c32)n1)C(=O)O (single isomer, unassigned) [Example 133AA] | 0.513 | 104 | 657
Cc1cccc(Cn2nc(-c3nc(N)c4c(n3)NC(=O)C4(C)c3nc(CC(C)(C)C(=O)O)co3)c3ccccc32)c1 (centres unmarked) [Example 226A, 3-(2-{4-amino-5-methyl-2-[1-(3-methylbenzyl)-1H-indazol-3-yl]-6-oxo-6,7-dihydro-5H-pyrrolo[2,3-d]pyrimidin-5-yl}-1,3-oxazol-4-yl)-2,2-dimethyl-propanoic acid] | 0.176 | 112 | 355
CC1(c2ccc(CCCC(=O)O)cc2)C(=O)Nc2nc(-c3nn(CCC(F)(F)C(F)(F)F)c4ncccc34)nc(N)c21 (centres unmarked) [Example 116A, 4-(4-{4-amino-5-methyl-6-oxo-2-[1-(3,3,4,4,4-pentafluorobutyl)-1H-pyrazolo[3,4-b]pyridin-3-yl)-6,7-dihydro-5H-pyrrolo[2,3-d]pyrimidin-5-yl}phenyl)butanoic acid] | 0.296 | 78 | 608
CC(C)(Cc1coc(C2(C)C(=O)Nc3nc(-c4nn(CC5CCCCO5)c5ccccc45)nc(N)c32)n1)C(=O)O (single isomer, unassigned) [Example 230AA, 3-{2-[4-amino-5-methyl-6-oxo-2-{1-[tetrahydro-2H-pyran-2-ylmethyl]-1H-indazol-3-yl}-6,7-dihydro-5H-pyrrolo[2,3-d]pyrimidin-5-yl]-1,3-oxazol-4-yl}-2,2-dimethyl-propanoic acid] | 0.185 |  | 821
CC1(c2ccc(CCCC(=O)O)cc2)C(=O)Nc2nc(-c3nn(Cc4ccccc4F)c4ncccc34)nc(N)c21 (centres unmarked) [Example 113B, 4-(4-{4-Amino-2-[1-(2-fluorobenzyl)-1H-pyrazolo[3,4-b]pyridin-3-yl]-5-methyl-6-oxo-6,7-dihydro-5H-pyrrolo[2,3-d]pyrimidin-5-yl}phenyl)butanoic acid] | 0.064 | 89 | 568
CC1(c2nc(CCC(F)(F)C(=O)O)co2)C(=O)Nc2nc(-c3nn(Cc4cccc(F)c4)c4cc(F)ccc34)nc(N)c21 (centres unmarked) [Example 135A, 4-(2-{4-amino-2-[6-fluoro-1-(3-fluorobenzyl)-1H-indazol-3-yl]-5-methyl-6-oxo-6,7-dihydro-5H-pyrrolo[2,3-d]pyrimidin-5-yl}-1,3-oxazol-4-yl)-2,2-difluorobutanoic acid] | 0.275 | 92.9 | 254
CC(C)(Cc1coc(C2(C)C(=O)Nc3nc(-c4nn(Cc5cccc(F)c5)c5ncccc45)nc(N)c32)n1)C(=O)O (centres unmarked) [Example 150A, 3-(2-{4-amino-2-[1-(3-fluoro-benzyl)-1H-pyrazolo [3,4-b]pyridin-3-yl]-5-methyl-6-oxo-6,7-dihydro-5H-pyrrolo[2,3-d]pyrimidin-5-yl}-1,3-oxazol-4-yl)-2,2-dimethyl-propanoic acid] | 0.096 | 102 | 294
C[C@@]1(c2ccc(CCC(=O)NS(C)(=O)=O)cc2)C(=O)Nc2nc(-c3nn(Cc4ccccc4F)c4cc(Cl)ccc34)nc(N)c21 [Example 259B, (S)-3-(4-{4-Amino-2-[6-chloro-1-(2-fluorobenzyl)-1H-indazol-3-yl]-5-methyl-6-oxo-6,7-dihydro-5H-pyrrolo[2,3-d]pyrimidin-5-yl}phenyl)-N-(methylsulfonyl)propanamide] | 0.111 | 116 | 560

Further lines, results first:

Ki [1] [nM] | Emax (sGC α1/β1 heterodimer) [%] | EC50 (sGC α1/β1 heterodimer) [nM] | SMILES
0.098 | 92.7 | 1030 | CC1(c2nc(C[C@@H](N)C(=O)O)co2)C(=O)Nc2nc(-c3nn(Cc4ccccc4F)c4cc(Cl)ccc34)nc(N)c21 (single isomer, unassigned) [Example 172A, 3-(2-{4-amino-2-[6-chloro-1-(2-fluorobenzyl)-1H-indazol-3-yl]-5-methyl-6-oxo-6,7-dihydro-5H-pyrrolo[2,3-d]pyrimidin-5-yl}-1,3-oxazol-4-yl)-D-alanine]
0.13 | 85 | 1260 | C[C@@]1(c2ccc(CCC(=O)O)cc2)C(=O)Nc2nc(-c3nn(CC4CCCCO4)c4cc(Cl)ccc34)nc(N)c21 (single isomer, unassigned) [Example 6A]
0.11 | 132 | 678 | Cc1ccnc(Cn2nc(-c3nc(N)c4c(n3)NC(=O)[C@@]4(C)c3nc(CC(C)(C)C(=O)O)cs3)c3ccc(Cl)cc32)c1F [Example 216A, (S)-3-(2-{4-amino-2-[6-chloro-1-((3-fluoro-4-methyl-pyridin-2-yl)methyl)-1H-indazol-3-yl]-5-methyl-6-oxo-6,7-dihydro-5H-pyrrolo[2,3-d]pyrimidin-5-yl} 1,3-thiazol-4-yl)-2,2-dimethyl-propanoic acid]
0.183 | 109 | 264 | CC(C)(Cc1nc(C2(C)C(=O)Nc3nc(-c4nn(Cc5ccccc5F)c5cc(Cl)ccc45)nc(N)c32)cs1)C(=O)O (centres unmarked) [Example 142B, 3-(4-{4-amino-2-[6-chloro-1-(2-fluoro-benzyl)-1H-indazol-3-yl]-5-methyl-6-oxo-6,7-dihydro-5H-pyrrolo[2,3-d]pyrimidin-5-yl}-1,3-thiazol-2-yl)-2,2-dimethyl-propanoic acid]
0.908 | 105 | 916 | CCCCn1nc(-c2nc(N)c3c(n2)NC(=O)C3(C)c2cn(CCC(=O)O)nn2)c2ccc(Cl)cc21 (centres unmarked) [Example 36B, 3-{4-[4-amino-2-(1-butyl-6-chloro-1H-indazol-3-yl)-5-methyl-6-oxo-6,7-dihydro-5H-pyrrolo[2,3-d]pyrimidin-5-yl]-1H-1,2,3-triazol-1-yl}propanoic acid]
0.455 | 95 | 1320 | C[C@@]1(c2ccc(CCC(=O)O)cc2)C(=O)Nc2nc(-c3nn(CCCC(F)(F)F)c4ncccc34)nc(N)c21 [Example 15B, (S)-3-(4-{4-amino-5-methyl-6-oxo-2-[1-(4,4,4-trifluorobutyl)-1H-pyrazolo[3,4-b]pyridin-3-yl]-6,7-dihydro-5H-pyrrolo[2,3-d]pyrimidin-5-yl}phenyl)propanoic acid]
0.189 | 119 | 3700 | Cc1ccnc(Cn2nc(-c3nc(N)c4c(n3)NC(=O)C4(C)c3nc(CC(C)(C)C(=O)O)co3)c3ccc(Cl)cc32)c1F (centres unmarked) [Example 215A, 3-(2-{4-amino-2-[6-chloro-1-((3-fluoro-4-methyl-pyridin-2-yl)methyl)-1H-indazol-3-yl]-5-methyl-6-oxo-6,7-dihydro-5H-pyrrolo[2,3-d]pyrimidin-5-yl} 1,3-oxazol-4-yl)-2,2-dimethyl-propanoic acid]
0.267 | 116 | 320 | Cc1ccc(F)c(Cn2nc(-c3nc(N)c4c(n3)NC(=O)[C@@]4(C)c3nc(CC(C)(C)C(=O)O)cs3)c3ccc(Cl)cc32)c1 (single isomer, unassigned) [Example 214A]
0.058 | 136 | 125 | CC1(c2ccc(OCC(=O)O)cc2)C(=O)Nc2nc(-c3nn(Cc4ccccc4F)c4cc(Cl)ccc34)nc(N)c21 (centres unmarked) [Example 260A, (4-{4-Amino-2-[6-chloro-1-(2-fluorobenzyl)-1H-indazol-3-yl]-5-methyl-6-oxo-6,7-dihydro-5H-pyrrolo[2,3-d]pyrimidin-5-yl}phenoxy)acetic acid]
